The record followed here is patent US10900063B2, “Measurement of Lp-PLA2 activity” (ASAHI KASEI PHARMA CORPORATION, priority 2016, dated 2021).

One experiment addresses T1, Lp-PLA2 (Homo sapiens, UniProt Q13093).
T1 construct: Individual serum No. 16, individual serum No. 78; from tissue; host or cells: serum and plasma (individual sera, pooled sera, heparin and citrated pooled plasma)
T1 sequence (Q13093 22-441): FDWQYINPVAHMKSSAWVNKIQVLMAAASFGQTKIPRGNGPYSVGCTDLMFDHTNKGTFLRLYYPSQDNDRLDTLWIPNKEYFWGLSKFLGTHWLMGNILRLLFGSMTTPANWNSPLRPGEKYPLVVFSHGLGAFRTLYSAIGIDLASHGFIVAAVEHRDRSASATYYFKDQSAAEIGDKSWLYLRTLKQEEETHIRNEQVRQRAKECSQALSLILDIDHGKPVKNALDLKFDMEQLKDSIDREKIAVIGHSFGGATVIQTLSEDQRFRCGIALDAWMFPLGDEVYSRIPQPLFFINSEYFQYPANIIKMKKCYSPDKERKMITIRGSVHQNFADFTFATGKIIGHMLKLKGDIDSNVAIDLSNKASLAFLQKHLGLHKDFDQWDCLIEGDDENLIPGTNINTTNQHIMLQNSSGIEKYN
The experiment in a line: Lp-PLA2 activity measurement in serum/plasma with reagents of the invention (PAF substrate, lyso-PAF-PLD, choline oxidase, peroxidase colorimetry). The format is biochemical. The following applies: Example 9; for Lp-PLA2 activity value / absorbance change per minute (sensitivity): 10 mM substrate in R2; for Relative activity: PAF(C16) = 100. On the procedure: Unless otherwise specified, in these examples the Method 1 described under 1) below is used for calculating Lp-PLA2 activity values. In these examples, (nmol/min/mL) is sometimes expressed as (U/L).
This is calculated by the following formula based on the absorbance change per minute (ΔmAbs/min) as calculated from absorbance at the measuring points and the millimolar extinction coefficient (ε=36) of TODB at 546 nm.
4 μL of the sample was mixed with 160 μL of the R1 reagent, and incubated for 5 minutes at 37° C. (measuring points 1 to 16), after which 40 μL of the R2 reagent was added to initiate a reaction (measuring point 17). The absorbance of water (blank) at the same measuring points was subtracted from the absorbance of the sample about 3.6 to 4.5 minutes after the reaction was initiated by addition of the R2 reagent (measuring points 30 to 33) to calculate the absorbance change per minute (ΔmAbs/min), and the Lp-PLA2 activity value (nmol/min/mL) was calculated according to the previous formula.
[…] was mixed with 150 μL of the R1 reagent, and incubated for 5 minutes at 37° C. (measuring points 1 to 15), after which 100 μL of the R2 reagent was added to initiate a reaction (measuring point 16). The absorbance of water (blank) at the same measuring points was subtracted from the absorbance of the sample about 2 to 3 minutes after the reaction was initiated by addition of the R2 reagent (measuring points 23 to 26) to calculate the absorbance change per minute (ΔmAbs/min), and the Lp-PLA2 activity value (nmol/min/mL) was calculated according to the previous formula. The values for absorbance change per minute (sensitivity) (ΔmAbs/min) and the Lp-PLA2 activity values (nmol/min/mL) at each pH are shown in Tables 1 and 2.
(§1) 5 μL of sample was mixed with 150 μL of the R1 reagent, and incubated for 5 minutes at 37° C. (measuring points 1 to 15), after which 100 μL of the R2 reagent was added to initiate a reaction (measuring point 16). The absorbance of water (blank) at the same measuring points was subtracted from the absorbance of the sample about 3.5 to 4.5 minutes after the reaction was initiated by addition of the R2 reagent (measuring points 27 to 30) to calculate the absorbance change per minute (ΔmAbs/min), and the Lp-PLA2 activity value (nmol/min/mL) was calculated according to the previous formula. The values for absorbance change per minute (sensitivity) (ΔmAbs/min) and Lp-PLA2 activity (nmol/min/mL) and the relative activity for each substrate given 100 as the Lp-PLA2 activity value for PAF(C16) are shown in Tables 19 to 24.
Each sample was mixed with 160 μL of the R1 reagent, and incubated for 5 minutes at 37° C., (measuring points 1 to 15), after which 40 μL of the R2 reagent was added to initiate the reaction (measuring point 16). The absorbance of water (blank) at the same measuring points was subtracted from the absorbance of the sample about 3.5 to 4.5 minutes after the reaction was initiated by addition of the R2 reagent (measuring points 27 to 30) to calculate the absorbance change per minute (ΔmAbs/min), and the Lp-PLA2 activity value (nmol/min/mL) was calculated according to the previous formula. […]
(measuring points 1 to 16), after which 100 μL of the R2 reagent was added to initiate a reaction (measuring point 17). The absorbance of water (blank) at the same measuring points was subtracted from the absorbance of the sample about 3.5 to 4.5 minutes after the reaction was initiated by addition of the R2 reagent (measuring points 29 to 32) to calculate the absorbance change per minute (ΔmAbs/min), and the Lp-PLA2 activity value (nmol/min/mL) was calculated according to the previous formula.

The target in a further experiment is T2, rLp-PLA2 (Homo sapiens, UniProt Q13093, I42M).
T2 construct: histidine tag (from vector pET-19b) (N); made in house; host or cells: E. coli BL21(DE3), plasmid Lp-PLA2/pET-19b
T2 sequence (Q13093 42-441 I42M): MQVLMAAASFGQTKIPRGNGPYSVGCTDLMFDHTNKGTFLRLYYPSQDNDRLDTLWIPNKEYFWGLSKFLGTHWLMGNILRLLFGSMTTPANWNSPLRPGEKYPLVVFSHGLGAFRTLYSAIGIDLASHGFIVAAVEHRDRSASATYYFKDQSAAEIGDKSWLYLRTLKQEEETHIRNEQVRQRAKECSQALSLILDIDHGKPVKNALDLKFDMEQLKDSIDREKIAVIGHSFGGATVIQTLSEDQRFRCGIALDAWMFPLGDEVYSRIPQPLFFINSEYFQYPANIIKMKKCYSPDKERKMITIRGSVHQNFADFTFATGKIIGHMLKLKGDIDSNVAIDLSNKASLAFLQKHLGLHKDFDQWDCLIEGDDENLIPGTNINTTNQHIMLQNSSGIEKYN
The experiment in a line: Lp-PLA2 activity measurement with reagents of the invention, recombinant Lp-PLA2 as sample. The format is biochemical. The conditions noted are these: Example 9, sample rLp-PLA2 (0.017 mg/mL); for Lp-PLA2 activity value / absorbance change per minute (sensitivity): 10 mM substrate in R2; for Relative activity: PAF(C16) = 100. As for the experimental part:
The recombinant Lp-PLA2 (rLp-PLA2) used in these examples was prepared in accordance with Reference Examples 4 to 6 based on the information disclosed in J. Biol. Chem., Oct. 27, 1995, No. 43, Vol. 270, pp. 25481-25487.
A gene optimized for E. coli (matched to E. coli codon usage) was synthesized (GenScript (NJ, USA)) based on the sequence data for a human Lp-PLA2 gene. Using the synthesized DNA as a template, a roughly 1200 bp PCR product was obtained by PCR using KOD FX (Toyobo Co., Ltd.) using as the sense primer the nucleotide sequence of SEQ ID NO: 5 in which the 42nd isoleucine was changed to the sequence of the initial methionine, with the nucleotide sequence of SEQ ID NO: 6 as the antisense primer. The resulting PCR product was digested with NdeI (Takara Bio Inc.) and BamHI (Takara Bio Inc.), and inserted into the NdeI-BamHI site of the expression vector pET-19b (Novagen) to obtain an Lp-PLA2/pET-19b expression plasmid. This expression plasmid was transformed into One shot BL21(DE3) Chemically Competent E. coli, to obtain a transformant called Lp-PLA2/pET-19b/BL21(DE3) comprising a recombinant vector containing a polynucleotide consisting of a nucleotide sequence encoding Lp-PLA2 with a histidine tag from the vector added at the N-terminus.
as §1

Consider `CCCCCCCCCCCCCCCC(=O)OC[C@H](COP(=O)([O-])OCC[N+](C)(C)C)OC(C)=O` [1-Palmitoyl-2-acetyl-sn-glycero-PC, 1-Palmitoyl-2-acetyl-sn-glycero-3-phosphocholine], for which the Lp-PLA2 activity value stood at 34.4 nmol/min/mL at Lp-PLA2 (sample Citrated pooled plasma); 44.1 nmol/min/mL at Lp-PLA2 (sample Heparin pooled plasma); 82.3 nmol/min/mL at Lp-PLA2 (sample Individual serum 16); 44.9 nmol/min/mL at Lp-PLA2 (sample Pooled serum C); 45.2 nmol/min/mL at Lp-PLA2 (sample Pooled serum J042); 98.7 nmol/min/mL on rLp-PLA2. Besides, the “absorbance change per minute (sensitivity)” value (from here on “absorbance change per minute”) is 24.3 ΔmAbs/min on Lp-PLA2 (sample Citrated pooled plasma); 31.1 ΔmAbs/min at Lp-PLA2 (sample Heparin pooled plasma); 58.1 ΔmAbs/min at Lp-PLA2 (sample Individual serum 16); 31.7 ΔmAbs/min at Lp-PLA2 (sample Pooled serum C); 31.9 ΔmAbs/min on Lp-PLA2 (sample Pooled serum J042); 69.7 ΔmAbs/min on rLp-PLA2. Moreover, the Relative activity came out at 103% on Lp-PLA2 (sample Citrated pooled plasma); 99% at Lp-PLA2 (sample Heparin pooled plasma); 87% at Lp-PLA2 (sample Individual serum 16); 110% on Lp-PLA2 (sample Pooled serum C); 111% on Lp-PLA2 (sample Pooled serum J042); 75% on rLp-PLA2.

`CCCCCCCCCCCCCCCCOC[C@H](COP(=O)([O-])OCC[N+](C)(C)C)OC(C)=O` [PAF(C16), 1-O-Hexadecyl-2-acetyl-sn-glycero-3-phosphocholine]: the Lp-PLA2 activity value at Lp-PLA2 (sample Citrated pooled plasma) is reported as 33.3 nmol/min/mL; on Lp-PLA2 (sample Heparin pooled plasma) it was 44.3 nmol/min/mL; on Lp-PLA2 (sample Individual serum 16), 94.8 nmol/min/mL; at Lp-PLA2 (sample Pooled serum C) it was 40.8 nmol/min/mL; at Lp-PLA2 (sample Pooled serum J042), 40.8 nmol/min/mL; at rLp-PLA2 it was 132.3 nmol/min/mL. For the same compound, the “absorbance change per minute” value is reported as 23.5 ΔmAbs/min on Lp-PLA2 (sample Citrated pooled plasma); 31.3 ΔmAbs/min at Lp-PLA2 (sample Heparin pooled plasma); 66.9 ΔmAbs/min at Lp-PLA2 (sample Individual serum 16); 28.8 ΔmAbs/min at Lp-PLA2 (sample Pooled serum C); 28.8 ΔmAbs/min at Lp-PLA2 (sample Pooled serum J042); 93.4 ΔmAbs/min on rLp-PLA2. Moreover, the Relative activity at Lp-PLA2 (sample Citrated pooled plasma), on Lp-PLA2 (sample Heparin pooled plasma), on Lp-PLA2 (sample Individual serum 16), at Lp-PLA2 (sample Pooled serum C), on Lp-PLA2 (sample Pooled serum J042) and at rLp-PLA2 was 100% throughout.

`CCCCCCCCCCCCCCCCCCOC[C@H](COP(=O)([O-])OCC[N+](C)(C)C)OC(C)=O` [PAF(C18), 1-O-Octadecyl-2-acetyl-sn-glycero-3-phosphocholine]: the Lp-PLA2 activity value at Lp-PLA2 (sample Citrated pooled plasma) turned out to be 27.8 nmol/min/mL; on Lp-PLA2 (sample Heparin pooled plasma), 38.7 nmol/min/mL; on Lp-PLA2 (sample Individual serum 16), 79.3 nmol/min/mL; on Lp-PLA2 (sample Pooled serum C), 35.6 nmol/min/mL; at Lp-PLA2 (sample Pooled serum J042), 35.4 nmol/min/mL; at rLp-PLA2, 74.1 nmol/min/mL. Moreover, the “absorbance change per minute” value on Lp-PLA2 (sample Citrated pooled plasma) is on record as 19.6 ΔmAbs/min; on Lp-PLA2 (sample Heparin pooled plasma), 27.3 ΔmAbs/min; at Lp-PLA2 (sample Individual serum 16) it was 56.0 ΔmAbs/min; on Lp-PLA2 (sample Pooled serum C), 25.1 ΔmAbs/min; at Lp-PLA2 (sample Pooled serum J042), 25.0 ΔmAbs/min; at rLp-PLA2 it was 52.3 ΔmAbs/min. Besides, the Relative activity on Lp-PLA2 (sample Citrated pooled plasma) is on record as 83%; on Lp-PLA2 (sample Heparin pooled plasma), 87%; on Lp-PLA2 (sample Individual serum 16) it was 84%; at Lp-PLA2 (sample Pooled serum C) it was 87%; on Lp-PLA2 (sample Pooled serum J042), 87%; at rLp-PLA2, 56%.
